Experimental data as given in PubChem BioAssay (NCI).
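A five-concentration, 48-hour dose response in 96-well plates underlies each endpoint, interpolated linearly between surrounding concentrations. Abbreviation: GI50, concentration required for 50% inhibition of growth. At the TGI there is no net growth.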

Tests used:
Assay in all cases: growth of human tumour cells (NCI), 48 h
UACC-62 melanoma = test system: UACC-62 melanoma
SK-MEL-2 melanoma = test system: SK-MEL-2 melanoma
K-562 leukemia = test system: K-562 leukemia
NCI/ADR-RES ovarian = test system: NCI/ADR-RES ovarian
PC-3 prostate = test system: PC-3 prostate
SF-268 CNS = test system: SF-268 CNS
A549 NSCLC = test system: A549 NSCLC
MOLT-4 leukemia = test system: MOLT-4 leukemia
IGROV1 ovarian = test system: IGROV1 ovarian
TK-10 renal = test system: TK-10 renal
T-47D breast = test system: T-47D breast
A498 renal = test system: A498 renal
NCI-H460 lung = test system: NCI-H460 lung
LOX IMVI melanoma = test system: LOX IMVI melanoma
HCT-116 colon = test system: HCT-116 colon
OVCAR-8 ovarian = test system: OVCAR-8 ovarian
COLO 205 colon = test system: COLO 205 colon
SF-539 CNS = test system: SF-539 CNS
MALME-3M melanoma = test system: MALME-3M melanoma
CCRF-CEM leukemia = test system: CCRF-CEM leukemia
NCI-H226 lung = test system: NCI-H226 lung
HL-60(TB) leukemia = test system: HL-60(TB) leukemia
OVCAR-5 ovarian = test system: OVCAR-5 ovarian
HT29 colon = test system: HT29 colon
OVCAR-3 ovarian = test system: OVCAR-3 ovarian
HCT-15 colon = test system: HCT-15 colon
EKVX NSCLC = test system: EKVX NSCLC
UO-31 renal = test system: UO-31 renal
SW-620 colon = test system: SW-620 colon
SK-MEL-28 melanoma = test system: SK-MEL-28 melanoma
RXF 393 renal = test system: RXF 393 renal
SN12C renal = test system: SN12C renal
M14 melanoma = test system: M14 melanoma
SK-OV-3 ovarian = test system: SK-OV-3 ovarian
KM12 colon = test system: KM12 colon
SF-295 CNS = test system: SF-295 CNS
U251 CNS = test system: U251 CNS
MDA-MB-231 breast = test system: MDA-MB-231 breast
BT-549 breast = test system: BT-549 breast
SR leukemia = test system: SR leukemia
MDA-MB-435 = test system: MDA-MB-435
RPMI-8226 leukemia = test system: RPMI-8226 leukemia
SNB-75 CNS = test system: SNB-75 CNS
UACC-257 melanoma = test system: UACC-257 melanoma
CAKI-1 renal = test system: CAKI-1 renal
HCC-2998 colon = test system: HCC-2998 colon
OVCAR-4 ovarian = test system: OVCAR-4 ovarian
786-0 renal = test system: 786-0 renal
HOP-92 NSCLC = test system: HOP-92 NSCLC
DU-145 prostate = test system: DU-145 prostate
NCI-H23 lung = test system: NCI-H23 lung
SK-MEL-5 melanoma = test system: SK-MEL-5 melanoma
SNB-19 CNS = test system: SNB-19 CNS
HS 578T breast = test system: HS 578T breast
NCI-H522 lung = test system: NCI-H522 lung
HOP-62 NSCLC = test system: HOP-62 NSCLC
ACHN renal = test system: ACHN renal
MCF7 breast = test system: MCF7 breast

O=c1[nH]c2ccc(N=Cc3c(O)[nH]c4ccccc34)cc2[nH]1
GI50 (UACC-62 melanoma): > 25 µM | TGI (UACC-62 melanoma): > 25 µM | GI50 (SK-MEL-2 melanoma): > 25 µM | TGI (SK-MEL-2 melanoma): > 25 µM | GI50 (K-562 leukemia): > 25 µM | TGI (K-562 leukemia): > 25 µM | GI50 (NCI/ADR-RES ovarian): > 25 µM | TGI (NCI/ADR-RES ovarian): > 25 µM | GI50 (PC-3 prostate): > 25 µM | TGI (PC-3 prostate): > 25 µM | GI50 (SF-268 CNS): > 13.8 µM | TGI (SF-268 CNS): > 25 µM | GI50 (A549 NSCLC): > 25 µM | TGI (A549 NSCLC): > 25 µM | GI50 (MOLT-4 leukemia): > 25 µM | TGI (MOLT-4 leukemia): > 25 µM | GI50 (IGROV1 ovarian): > 25 µM | TGI (IGROV1 ovarian): > 25 µM | GI50 (TK-10 renal): > 25 µM | TGI (TK-10 renal): > 25 µM | GI50 (T-47D breast): > 25 µM | TGI (T-47D breast): > 25 µM | GI50 (A498 renal): > 25 µM | TGI (A498 renal): > 25 µM | GI50 (NCI-H460 lung): > 25 µM | TGI (NCI-H460 lung): > 25 µM | GI50 (LOX IMVI melanoma): > 25 µM | TGI (LOX IMVI melanoma): > 25 µM | GI50 (HCT-116 colon): > 25 µM | TGI (HCT-116 colon): > 25 µM | GI50 (OVCAR-8 ovarian): > 25 µM | TGI (OVCAR-8 ovarian): > 25 µM | GI50 (COLO 205 colon): > 25 µM | TGI (COLO 205 colon): > 25 µM | GI50 (SF-539 CNS): > 25 µM | TGI (SF-539 CNS): > 25 µM | GI50 (MALME-3M melanoma): > 25 µM | TGI (MALME-3M melanoma): > 25 µM | GI50 (CCRF-CEM leukemia): 24.2 µM | TGI (CCRF-CEM leukemia): > 25 µM | GI50 (NCI-H226 lung): > 25 µM | TGI (NCI-H226 lung): > 25 µM | GI50 (HL-60(TB) leukemia): > 25 µM | TGI (HL-60(TB) leukemia): > 25 µM | GI50 (OVCAR-5 ovarian): > 25 µM | TGI (OVCAR-5 ovarian): > 25 µM | GI50 (HT29 colon): > 25 µM | TGI (HT29 colon): > 25 µM | GI50 (OVCAR-3 ovarian): > 25 µM | TGI (OVCAR-3 ovarian): > 25 µM | GI50 (HCT-15 colon): > 25 µM | TGI (HCT-15 colon): > 25 µM | GI50 (EKVX NSCLC): > 25 µM | TGI (EKVX NSCLC): > 25 µM | GI50 (UO-31 renal): > 25 µM | TGI (UO-31 renal): > 25 µM | GI50 (SW-620 colon): > 25 µM | TGI (SW-620 colon): > 25 µM | GI50 (SK-MEL-28 melanoma): > 25 µM | TGI (SK-MEL-28 melanoma): > 25 µM | GI50 (RXF 393 renal): > 25 µM | TGI (RXF 393 renal): > 25 µM | GI50 (SN12C renal): > 25 µM | TGI (SN12C renal): > 25 µM | GI50 (M14 melanoma): > 25 µM | TGI (M14 melanoma): > 25 µM | GI50 (SK-OV-3 ovarian): > 25 µM | TGI (SK-OV-3 ovarian): > 25 µM | GI50 (KM12 colon): > 25 µM | TGI (KM12 colon): > 25 µM | GI50 (SF-295 CNS): > 25 µM | TGI (SF-295 CNS): > 25 µM | GI50 (U251 CNS): 18.6 µM | TGI (U251 CNS): > 25 µM | GI50 (MDA-MB-231 breast): > 25 µM | TGI (MDA-MB-231 breast): > 25 µM | GI50 (BT-549 breast): > 25 µM | TGI (BT-549 breast): > 25 µM | GI50 (SR leukemia): > 25 µM | TGI (SR leukemia): > 25 µM | GI50 (MDA-MB-435): > 25 µM | TGI (MDA-MB-435): > 25 µM | GI50 (RPMI-8226 leukemia): > 25 µM | TGI (RPMI-8226 leukemia): > 25 µM | GI50 (SNB-75 CNS): > 14.7 µM | TGI (SNB-75 CNS): > 25 µM | GI50 (UACC-257 melanoma): > 25 µM | TGI (UACC-257 melanoma): > 25 µM | GI50 (CAKI-1 renal): > 25 µM | TGI (CAKI-1 renal): > 25 µM | GI50 (HCC-2998 colon): > 25 µM | TGI (HCC-2998 colon): > 25 µM | GI50 (OVCAR-4 ovarian): > 25 µM | TGI (OVCAR-4 ovarian): > 25 µM | GI50 (786-0 renal): > 25 µM | TGI (786-0 renal): > 25 µM | GI50 (HOP-92 NSCLC): 23.2 µM | TGI (HOP-92 NSCLC): > 25 µM | GI50 (DU-145 prostate): > 20.4 µM | TGI (DU-145 prostate): > 25 µM | GI50 (NCI-H23 lung): > 25 µM | TGI (NCI-H23 lung): > 25 µM | GI50 (SK-MEL-5 melanoma): > 25 µM | TGI (SK-MEL-5 melanoma): > 25 µM | GI50 (SNB-19 CNS): > 25 µM | TGI (SNB-19 CNS): > 25 µM | GI50 (HS 578T breast): > 6.4 µM | TGI (HS 578T breast): > 25 µM | GI50 (NCI-H522 lung): > 25 µM | TGI (NCI-H522 lung): > 25 µM | GI50 (HOP-62 NSCLC): > 17.7 µM | TGI (HOP-62 NSCLC): > 25 µM | GI50 (ACHN renal): > 25 µM | TGI (ACHN renal): > 25 µM | GI50 (MCF7 breast): > 25 µM | TGI (MCF7 breast): > 25 µM
